From patent US20230310388A1, “Methods and Compositions for Treating Fungal Infections” (Neoculi Pty Ltd, priority 2020, published 2023)
Converted amounts (≈) assume the structure as drawn. Like-named read-outs stand apart in the source and are kept apart here. Each block holds one molecule with its values, some of them ahead of it.

Assays:
Candida albicans [1] = test: CLSI broth microdilution MIC (Example 3); assay type: cell-based
Experimental: (§1) Antifungal minimum inhibitory concentration (MIC) testing was undertaken as recommended by the CLSI. Briefly, antifungal susceptibility tests were performed for amphotericin B, robenidine (NCL812) and 5 robenidine analogs (NCL062, NCL195, NCL219, NCL259, NCL265) by standard broth microdilution method (CLSI) in RPMI 1640. Various concentrations (ranging from high to low) of the selected compounds were prepared in RPMI 1640 medium by double dilution in 96-well microtitre plates. Each well contained an inoculum of approximately 2×10^3 cells/mL. The wells without addition of drugs served as negative (no inoculum) and positive (inoculum only) growth controls. Microtitre plates were incubated at 35° C. for 24-48 hours. […] Antifungal MICs were determined for each isolate in duplicate; if the values obtained were different, the MIC test was repeated a third time. Antifungal susceptibility tests were performed for amphotericin B and NCL analogs by standard broth microdilution method (CLSI). Briefly, various concentrations (ranging from high to low) of the selected compounds were prepared in RPMI 1640 medium by double dilution in the 96-well plates. Each well contained an inoculum of approximately 2×10^3 cells/mL. The wells without addition of drugs served as a negative control. Micro plates were incubated at 35° C. for 48 hour and read spectrophotometrically at 600 nm, using a microplate reader (Multiskan-EX; Thermo Elect. Corp., USA).

Candida parapsilosis = test: CLSI broth microdilution MIC (Example 3); assay type: cell-based; conditions: Candida parapsilosis ATCC 22019
Experimental: as §1

Candida albicans [2] = test: CLSI broth microdilution MIC (Example 4); assay type: cell-based; conditions: for antifungal activity against the two isolates of Candida albicans: summary in words
In short: (§2)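 CLSI broth microdilution in RPMI 1640 with two-fold compound dilutions and inoculum about 2×10^3 cells/mL. Plates incubated 35° C for 24-48 hours; MICs determined in duplicate, with a third test when the duplicates differed.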

Cryptococcus neoformans [3] = test: CLSI broth microdilution MIC (Example 4); assay type: cell-based
In short: as §2

Candida albicans [4] = test: CLSI broth microdilution MIC (Example 5); assay type: cell-based
In short: (§3)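 Broth microdilution per CLSI in RPMI 1640 with twofold compound dilutions, inoculum about 2×10^3 cells/mL. Plates incubated at 35° C for 24-48 hours. MIC determined per isolate in duplicate, with a third repeat when the two values differed.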

Cryptococcus neoformans [5] = test: CLSI broth microdilution MIC (Example 5); assay type: cell-based
In short: as §3

Candida albicans [6] = test: CLSI broth microdilution MIC (Example 6); assay type: cell-based
In short: (§4)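 CLSI broth microdilution in RPMI 1640, compounds serially double-diluted, inoculum about 2×10^3 cells/mL. Incubation at 35° C for 24-48 hours. MICs determined per isolate in duplicate, with a third repeat if values differed.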

Cryptococcus neoformans [7] = test: CLSI broth microdilution MIC (Example 6); assay type: cell-based
In short: as §4

C. gattii = test: CLSI broth microdilution MIC (Example 6); assay type: cell-based, Cryptococcus gattii
In short: as §4

[8] = Example 6 isolates, summary in words
[9] = human clinical isolate C. gattii 16-90050373
[10] = human clinical isolate C. gattii 17-90028211
[11] = Candida albicans, C. albicans SA3, read-out: MIC

MIC (Candida albicans [1]; Candida albicans ATCC 90028, 1st): 2 µg/mL (≈ 5.56 µM)
MIC (Candida albicans [1]; Candida albicans ATCC 90028, 2nd): 2 µg/mL (≈ 5.56 µM)
MIC (Candida albicans [1]; Candida albicans, 1st): 2 µg/mL (≈ 5.56 µM)
MIC (Candida albicans [1]; Candida albicans, 2nd): 2 µg/mL (≈ 5.56 µM)
MIC (Candida parapsilosis; 1st): 1 µg/mL (≈ 2.78 µM)
MIC (Candida parapsilosis; 2nd): 2 µg/mL (≈ 5.56 µM)
MIC at 24-48 hours (Candida albicans [2]; Candida albicans ATCC 90028): 2 µg/mL (≈ 5.56 µM)
MIC at 24-48 hours (Candida albicans [2]; Candida albicans SA3): 2 µg/mL (≈ 5.56 µM)
MIC at 24-48 hours (Cryptococcus neoformans [3]; Cryptococcus neoformans SA1): 2 µg/mL (≈ 5.56 µM)
MIC at 24-48 hours (Cryptococcus neoformans [3]; Cryptococcus neoformans SA2): 2 µg/mL (≈ 5.56 µM)
MIC (Candida albicans [4]; C. albicans SA3): 2 µg/mL (≈ 5.56 µM)
MIC (Candida albicans [4]; Candida albicans ATCC 90028): 2 µg/mL (≈ 5.56 µM)
MIC (Candida albicans [4]; clinical isolate C. albicans 12-93301752 Azole Resistant): 4 µg/mL (≈ 11.1 µM)
MIC (Candida albicans [4]; clinical isolate C. albicans 14-90045999 Azole Resistant): >16 µg/mL
MIC (Candida albicans [4]; clinical isolate C. albicans 15-45171061): 8 µg/mL (≈ 22.3 µM)
MIC (Candida albicans [4]; clinical isolate C. albicans 15-91329871): 8 µg/mL (≈ 22.3 µM)
MIC (Candida albicans [4]; clinical isolate C. albicans 16-24136919 Azole Resistant): 4 µg/mL (≈ 11.1 µM)
MIC (Candida albicans [4]; clinical isolate C. albicans 16-46177400): 4 µg/mL (≈ 11.1 µM)
MIC (Candida albicans [4]; clinical isolate C. albicans 16-90050810): 4 µg/mL (≈ 11.1 µM)
MIC (Candida albicans [4]; clinical isolate C. albicans 16-90054237): 4 µg/mL (≈ 11.1 µM)
MIC (Candida albicans [4]; clinical isolate C. albicans 18-144-00196): 4 µg/mL (≈ 11.1 µM)
MIC (Candida albicans [4]; clinical isolate C. albicans 18-148-08188 Azole Resistant): >16 µg/mL
MIC (Cryptococcus neoformans [5]; Cryptococcus neoformans SA1): 2 µg/mL (≈ 5.56 µM)
MIC (Cryptococcus neoformans [5]; Cryptococcus neoformans SA2): 2 µg/mL (≈ 5.56 µM)
MIC (Candida albicans [6]; C. albicans SA3): 2 µg/mL (≈ 5.56 µM)
MIC (Candida albicans [6]; Candida albicans ATCC 90028): 2 µg/mL (≈ 5.56 µM)
MIC (Cryptococcus neoformans [7]; Cryptococcus neoformans SA1): 2 µg/mL (≈ 5.56 µM)
MIC (Cryptococcus neoformans [7]; Cryptococcus neoformans SA2): 2 µg/mL (≈ 5.56 µM)
MIC (Cryptococcus neoformans [7]; human clinical isolate C. neoformans serotype A/D hybrid): 2 µg/mL (≈ 5.56 µM)
MIC (Cryptococcus neoformans [7]; human clinical isolate C. neoformans var grubii 16-90050434): 2 µg/mL (≈ 5.56 µM)
MIC (Cryptococcus neoformans [7]; human clinical isolate C. neoformans var grubii 17-90028233): 2 µg/mL (≈ 5.56 µM)
MIC (Cryptococcus neoformans [7]; human clinical isolate C. neoformans var grubii 17-93996464): 2 µg/mL (≈ 5.56 µM)
MIC (Cryptococcus neoformans [7]; human clinical isolate C. neoformans var grubii 17-93996964): 2 µg/mL (≈ 5.56 µM)
MIC (C. gattii; human clinical isolate C. gatti 17-90232099): 2 µg/mL (≈ 5.56 µM)
MIC (C. gattii; [9]): 2 µg/mL (≈ 5.56 µM)
MIC (C. gattii; [10]): 2 µg/mL (≈ 5.56 µM)
MIC (C. gattii; human clinical isolate C. gattii 17-90028217): 2 µg/mL (≈ 5.56 µM)
MIC (C. gattii; human clinical isolate C. gattii 17-90028242): 2 µg/mL (≈ 5.56 µM)
Compound: Cc1ccc(/C=N/Nc2cc(N/N=C/c3ccc(C)cc3)nc(N)n2)cc1 [NCL195]
antifungal activity against the two isolates of Candida albicans (Candida albicans [2]): high antifungal activity
activity against one or more isolates of Cryptococcus neoformans and Candida albicans (Candida albicans [4]; summary in words): highly active
activity against all isolates (Cryptococcus neoformans [7]; [8]): active
relative potency among tested compounds (Cryptococcus neoformans [7]; [8]): most potent activity

MIC (Candida albicans [1]; Candida albicans, ATCC90028, Candida albicans ATCC 90028, 1st, read-out: MIC): 0.25 µg/mL (≈ 0.748 µM)
MIC (Candida albicans [1]; Candida albicans, ATCC90028, Candida albicans ATCC 90028, 2nd, read-out: MIC): 0.5 µg/mL (≈ 1.5 µM)
MIC (Candida albicans [1]; Candida albicans, two Candida albicans and one Candida parapsilosis isolates, summary range, read-out: MIC): 0.5 to 8 µg/mL (≈ 1.5 to 23.9 µM)
MIC (Candida albicans [1]; Candida albicans, 1st, read-out: MIC): 0.5 µg/mL (≈ 1.5 µM)
MIC (Candida albicans [1]; Candida albicans, 2nd, read-out: MIC): 1 µg/mL (≈ 2.99 µM)
MIC (Candida parapsilosis; 2nd): 0.5 µg/mL (≈ 1.5 µM)
MIC (Candida parapsilosis; Lodderomyces parapsilosis, ATCC22019, 1st, read-out: MIC): 0.5 µg/mL (≈ 1.5 µM)
MIC (Candida albicans [2]; ATCC90028, read-out: MIC at 24-48 hours, Candida albicans ATCC 90028): 2 µg/mL (≈ 5.98 µM)
MIC (Candida albicans [2]; read-out: MIC at 24-48 hours, Candida albicans SA3): 2 µg/mL (≈ 5.98 µM)
MIC at 24-48 hours (Cryptococcus neoformans [3]; Cryptococcus neoformans SA2): 2 µg/mL (≈ 5.98 µM)
MIC (Cryptococcus neoformans [3]; read-out: MIC at 24-48 hours, Cryptococcus neoformans SA1): 2 µg/mL (≈ 5.98 µM)
MIC (Cryptococcus neoformans [3]; two isolates of Cryptococcus neoformans, summary range, read-out: MICs): 1 to 16 µg/mL (≈ 2.99 to 47.9 µM)
MIC (Candida albicans [4]; Candida albicans, ATCC90028, Candida albicans ATCC 90028, read-out: MIC): 2 µg/mL (≈ 5.98 µM)
MIC (Candida albicans [4]; Candida albicans, clinical isolate C. albicans 12-93301752 Azole Resistant, read-out: MIC): 2 µg/mL (≈ 5.98 µM)
MIC (Candida albicans [4]; Candida albicans, clinical isolate C. albicans 14-90045999 Azole Resistant, read-out: MIC): 2 µg/mL (≈ 5.98 µM)
MIC (Candida albicans [4]; Candida albicans, clinical isolate C. albicans 15-45171061, read-out: MIC): 1 µg/mL (≈ 2.99 µM)
MIC (Candida albicans [4]; Candida albicans, clinical isolate C. albicans 15-91329871, read-out: MIC): 2 µg/mL (≈ 5.98 µM)
MIC (Candida albicans [4]; Candida albicans, clinical isolate C. albicans 16-24136919 Azole Resistant, read-out: MIC): 2 µg/mL (≈ 5.98 µM)
MIC (Candida albicans [4]; Candida albicans, clinical isolate C. albicans 16-46177400, read-out: MIC): 4 µg/mL (≈ 12 µM)
MIC (Candida albicans [4]; Candida albicans, clinical isolate C. albicans 16-90050810, read-out: MIC): 2 µg/mL (≈ 5.98 µM)
MIC (Candida albicans [4]; Candida albicans, clinical isolate C. albicans 16-90054237, read-out: MIC): 2 µg/mL (≈ 5.98 µM)
MIC (Candida albicans [4]; Candida albicans, clinical isolate C. albicans 18-144-00196, read-out: MIC): 0.5 µg/mL (≈ 1.5 µM)
MIC (Candida albicans [4]; Candida albicans, clinical isolate C. albicans 18-148-08188 Azole Resistant, read-out: MIC): 1 µg/mL (≈ 2.99 µM)
MIC (Candida albicans [4]; [11]): 2 µg/mL (≈ 5.98 µM)
MIC (Cryptococcus neoformans [5]; Cryptococcus neoformans SA1, read-out: MIC): 2 µg/mL (≈ 5.98 µM)
MIC (Cryptococcus neoformans [5]; Cryptococcus neoformans SA2): 2 µg/mL (≈ 5.98 µM)
MIC (Candida albicans [6]; ATCC90028, Candida albicans ATCC 90028, read-out: MIC): 2 µg/mL (≈ 5.98 µM)
MIC (Candida albicans [6]; [11]): 2 µg/mL (≈ 5.98 µM)
MIC (Cryptococcus neoformans [7]; Cryptococcus neoformans, Cryptococcus neoformans SA1, read-out: MIC): 2 µg/mL (≈ 5.98 µM)
MIC (Cryptococcus neoformans [7]; Cryptococcus neoformans, Cryptococcus neoformans SA2, read-out: MIC): 2 µg/mL (≈ 5.98 µM)
MIC (Cryptococcus neoformans [7]; Cryptococcus neoformans, human clinical isolate C. neoformans serotype A/D hybrid, read-out: MIC): 16 µg/mL (≈ 47.9 µM)
MIC (Cryptococcus neoformans [7]; Cryptococcus neoformans, human clinical isolate C. neoformans var grubii 16-90050434, read-out: MIC): 32 µg/mL (≈ 95.7 µM)
MIC (Cryptococcus neoformans [7]; Cryptococcus neoformans, human clinical isolate C. neoformans var grubii 17-90028233, read-out: MIC): 32 µg/mL (≈ 95.7 µM)
MIC (Cryptococcus neoformans [7]; Cryptococcus neoformans, human clinical isolate C. neoformans var grubii 17-93996464, read-out: MIC): 16 µg/mL (≈ 47.9 µM)
MIC (C. gattii; Cryptococcus gattii, human clinical isolate C. gattii 17-90028217, read-out: MIC): 16 µg/mL (≈ 47.9 µM)
MIC (C. gattii; [9]): 16 µg/mL (≈ 47.9 µM)
MIC (C. gattii; [10]): 16 µg/mL (≈ 47.9 µM)
Compound: N=C(N/N=C/c1ccc(Cl)cc1)N/N=C/c1ccc(Cl)cc1 [NCL812, robenidine, reference compound]
antifungal activity against the two isolates of Candida albicans (Candida albicans [2]): high antifungal activity
activity against all tested isolates of Cryptococcus neoformans and Candida albicans (Candida albicans [4]; summary in words): active
activity against one or more isolates of Cryptococcus neoformans and Candida albicans (Candida albicans [4]; summary in words): highly active
activity against all isolates (Cryptococcus neoformans [7]; [8]): active
activity against one or more isolates of Candida albicans and Cryptococcus neoformans (Cryptococcus neoformans [7]; summary in words): highly active
